Values after ≈ are worked out from the molar mass of the structure shown.
Assays:
P388 = test: In vitro cytotoxicity was measured towards murine lymphocytic leukemia P388 cells; format: functional, cell-based; conditions: Mus musculus
Escherichia coli = test: In vitro antibacterial activity of compound towards Escherichia coli NIHJ JC-2; format: functional
Staphylococcus aureus = test: In vitro antibacterial activity towards Staphylococcus aureus 209 JC-1; format: functional
Mus musculus [1] = test: In vivo antitumor activity against murine P388 leukemia measured as median survival of treated mice to that of control (T/C) at a dose of 50 mg/kg; format: functional
Mus musculus [2] = test: In vivo antitumor activity against murine P388 leukemia measured as median survival of treated mice to that of control (T/C) at a dose of […]; format: functional
C-33-A = test: Cytotoxic activity against human C-33A cervix tumor cell line; format: functional, cell-based
MKN-45 = test: Cytotoxic activity against human MKN45 stomach tumor cell line; format: functional, cell-based
WiDr = test: Cytotoxic activity against human WiDr colon tumor cell line; format: functional, cell-based
HMV-2 cell line = test: Cytotoxic activity against human HMV-2 melanoma tumor cell line; format: functional, cell-based
AZ-521 cell line = test: cells; format: functional, cell-based; conditions: Homo sapiens
Description: Cytotoxic activity against human AZ-521 stomach tumor cell line

A-427 = test: cells; format: functional, cell-based; conditions: Homo sapiens
Description: Cytotoxic activity against human A-427 lung tumor cell line

KB = test: Cytotoxic activity against human KB nasopha tumor cell line; format: functional, cell-based

NC1CCN(c2nc3c(cc2F)c(=O)c(O)cn3-c2nccs2)C1 (stereo not given) gave an IC50 (P388) of 0.168 µg/mL (≈ 0.484 µM), an MIC (Escherichia coli) of 0.78 µg/mL (≈ 2.25 µM) and an MIC (Staphylococcus aureus) of 50 µg/mL (≈ 144 µM).
With CCOC(=O)c1cn(-c2nccs2)c2nc(N3CCC(N)C3)c(F)cc2c1=O (stereo not given) the IC50 (P388) was 0.136 µg/mL (≈ 0.337 µM), the MIC (Escherichia coli) was 12.5 µg/mL (≈ 31 µM) and the MIC (Staphylococcus aureus) was 50 µg/mL (≈ 124 µM).
NC(=O)c1cn(-c2nccs2)c2nc(N3CCC(N)C3)c(F)cc2c1=O (stereo not given) gave an IC50 (P388) of 0.269 µg/mL (≈ 0.718 µM), an MIC (Escherichia coli) of over 100 µg/mL and an MIC (Staphylococcus aureus) of over 100 µg/mL.
NC1CCN(c2nc3c(cc2F)c(=O)c(C(=O)O)cn3-c2nccs2)C1 (stereo not given) showed an IC50 (P388) of 0.0211 µg/mL (≈ 0.0562 µM), an MIC (Escherichia coli) of 0.025 µg/mL (≈ 0.0666 µM) and a T/C (Mus musculus [1]) of over 375%. For the same compound, the MIC (Staphylococcus aureus) was 0.39 µg/mL (≈ 1.04 µM), the T/C (Mus musculus [2]) was 150% and the T/C (Mus musculus [2]; dose […]) was 213%.
Work on CN[C@H]1CN(c2nc3c(cc2F)c(=O)c(C=O)cn3-c2nccs2)C[C@@H]1OC yielded an IC50 (C-33-A) of 0.161 µg/mL (≈ 0.399 µM), an IC50 (P388) of 0.0309 µg/mL (≈ 0.0766 µM) and an IC50 (MKN-45) of 0.144 µg/mL (≈ 0.357 µM). For the same compound, the MIC (Escherichia coli) was 100 µg/mL (≈ 248 µM), the IC50 (WiDr) was 0.264 µg/mL (≈ 0.654 µM) and the IC50 (HMV-2 cell line) was 0.214 µg/mL (≈ 0.53 µM). The IC50 (AZ-521 cell line) was 0.0307 µg/mL (≈ 0.0761 µM), the IC50 (A-427) was 0.0749 µg/mL (≈ 0.186 µM) and the T/C (Mus musculus [1]) was 325%. For the same compound, the IC50 (KB) was 0.179 µg/mL (≈ 0.444 µM), the MIC (Staphylococcus aureus) was 12.5 µg/mL (≈ 31 µM) and the T/C (Mus musculus [2]) was 188%. The T/C (Mus musculus [2]; dose […]) was 250%.
NC1CCN(c2nc3c(cc2F)c(=O)c(Cc2ccccc2)cn3-c2nccs2)C1 (stereo not given) showed an IC50 (P388) of 0.0178 µg/mL (≈ 0.0422 µM), an MIC (Escherichia coli) of 100 µg/mL (≈ 237 µM) and an MIC (Staphylococcus aureus) of 50 µg/mL (≈ 119 µM).
COc1cc([C@@H]2c3cc4c(cc3[C@@H](O[C@@H]3O[C@@H]5CO[C@@H](C)O[C@H]5[C@H](O)[C@H]3O)[C@H]3COC(=O)[C@H]23)OCO4)cc(OC)c1O [ETOPOSIDE] showed an IC50 (C-33-A) of 0.084 µg/mL (≈ 0.143 µM), an IC50 (MKN-45) of 0.49 µg/mL (≈ 0.833 µM) and an IC50 (WiDr) of 1.63 µg/mL (≈ 2.77 µM). It also gave an IC50 (HMV-2 cell line) of 0.298 µg/mL (≈ 0.506 µM), an IC50 (AZ-521 cell line) of 0.08 µg/mL (≈ 0.136 µM) and a T/C (Mus musculus [1]) of over 375%. For the same compound, the IC50 (KB) was 0.201 µg/mL (≈ 0.342 µM), the T/C (Mus musculus [2]) was 175% and the T/C (Mus musculus [2]; dose […] mg/kg, […]) was 250%.

— ChEMBL document CHEMBL1146645, “Synthesis and structure-activity relationships of 3-substituted 1,4-dihydro-4-oxo-1-(2-thiazolyl)-1,8-naphthyridines as novel antitumor agents” (Bioorg Med Chem Lett, 2004)
